Entries after “also recorded” stand apart in the source; their conditions may differ.
Key:
male ICR mice [1] = test: Mouse radiant heat tail flick assay after acute ICV administration; format: in vivo; conditions: for Ligand ED50 pmol (95% C.L.), antinociceptive potency / ED50 nmol (95% C.L.), antinociceptive potency: mouse tail flick, acute ICV administration; for Ligand ED50 pmol (95% C.L.), antinociceptive potency: mu control ligands; for ED50 nmol (95% C.L.), antinociceptive potency: conjugates and coadministration
Experimental: Acute drug administration. Drugs were dissolved in sterile saline (0.9% NaCl). Animals were anesthetized with halothane and drugs were administered with a Hamilton syringe mated to a shortened (3 mm) 27-g needle in a volume of 4 μl by ICV injection into the lateral cerebral ventricle (Haley et al., 1957). The injection site was 1.6 mm lateral and 0.6 mm caudal to bregma.
Antinociceptive testing. […] Mice were tested once before injection (control time).

male ICR mice [2] = test: Physical dependence: naloxone-precipitated withdrawal jumping after chronic ICV infusion; format: in vivo, mouse; conditions: for physical dependence on chronic ICV administration: 3-day ICV infusion, naloxone-precipitated jumping; for # of Jumps (SEM), naloxone-precipitated withdrawal: average jumps in 10 minutes after naloxone 1 mg/kg sc, after 3-day ICV infusion
Experimental: (§1) Chronic administration To investigate tolerance and dependence associated with these conjugates, chronic ICV administration studies were performed. The compound of interest was administered ICV via a cannula using an osmotic minipump for 3 days, as previously described (Gomori et al., 2003; Mashiko et al., 2003). Withdrawal was measured by administering naloxone (1 mg/kg; subcutaneous (sc)) and counting the naloxone-precipitated jumps for 10 minutes. Tolerance was determined by administering challenge doses of the compound after chronic infusion for 3 days, and determining the chronic ED50 value at that time.
(§2) Chronic ICV infusion. Osmotic minipumps (model 1003D, Alzet, Durect Corporation, Cupertino, Calif.) were filled with saline or the drug to be tested. The dose of each drug was twelve times its ED50 (nmol)/hour. The minipumps were connected by a 1.6-1.8 cm length of PE-60 tubing to a 3-mm long cannula (osmotic pump connector cannula, Plastics One, Roanoke, Va.) and primed in sterile saline at 37° C. overnight.
(§3) The next day, mice were anesthetized with Avertin (2,2,2-tribromoethanol (370 mg/kg, IP)/tert amyl alcohol (0.16 mg/kg, IP)) before surgery. The scalp was shaved and an incision was made along the midline of the scalp. Hemostats were used to make a pocket under the skin between the shoulder blades. The skull was scraped clean of periosteum so that the cannula pedestal would properly adhere to the skull. A micro drill (Fine Science Tools Inc., Foster City, Calif.) was used to drill a hole approximately 1.6 mm lateral and 0.6 mm caudal to bregma. The minipump was placed between the shoulder blades, the cannula was inserted in the drilled hole into the lateral ventricle, and the cannula pedestal was affixed to the skull with cyanoacrylate glue. The animals were allowed to recover on a heating pad (Fine Science Tools, Foster City, Calif.) and were returned to their cages in the animal facility for three days.
Testing for dependence and tolerance. The development of physical dependence was assessed by quantifying withdrawal jumping observed during precipitated withdrawal (Way et al., 1969) on the fourth day after surgery. Mice were injected with naloxone (1 mg/kg, sc) and placed into Plexiglas cylinders for 10 minutes. During those 10 minutes, vertical jumps were counted as withdrawal signs.

male ICR mice [3] = test: Tolerance: tail flick ED50 after 3-day chronic ICV infusion (osmotic minipump); format: in vivo, mouse; conditions: for tolerance on chronic ICV administration: 3-day ICV infusion; for Chronic ED50 nmol (95% C.L.): compound chronically administered ICV for 3 days, then challenge doses; for Saline ED50 nmol (95% C.L.): saline chronically administered ICV for 3 days, then challenge doses of compound; for fold increase in ED50 value after chronic ICV infusion: three-day ICV infusion
Experimental: as §1, §2, §3
To test the degree of tolerance developed, the osmotic minipump was removed and the mice were returned to their cages for four hours. The mice were then injected with the test drug into the contralateral lateral cerebral ventricle and antinociception was measured with the tail flick test as described above.

male ICR mice [4] = test: Mouse tail flick assay after IV administration; conditions: tail flick, IV
Experimental: Antinociceptive testing. Antinociception was evaluated by the radiant heat tail flick assay (D'Amour et al., 1941). Briefly, a beam of light was focused on the mouse tail and the time until the tail flicked was measured. Each animal served as its own control and was used only once. Mice were tested once before injection (control time). After injection, the mice were tested at the time of peak drug response (drug time), as determined by pilot time course studies. The light intensity was adjusted so that control times were between 1.5 and 2.5 s. A 10 second cutoff drug time was set to minimize the risk of tissue damage. Percent maximum possible effect (% MPE) was calculated as follows (Dewey et al., 1970): […]
Graded dose response curves of at least 4 doses with at least 8 mice per dose were generated from the % MPE data.
Methods Drugs were administered IV via the tail vein in a volume of 100 μl to male ICR mice. Fifteen minutes later, antinociception was measured by the tail flick assay and charcoal meal (300 μl, oral) was administered by gavage. Thirty minutes after the charcoal meal., the mice were sacrificed by halothane overdose and the distance the charcoal traveled relative to the entire length of the GI tract was compared to the distance traveled in control animals injected with saline. The conjugates tested (MDAN-16, MDAN-19, MDAN-20, and MDAN-21) had linker lengths of 19, 23, 24, and 25 Å.

Row | Compound | Ligand ED50 pmol (95% C.L.), antinociceptive potency (male ICR mice [1]) [pmol] | ED50 nmol (95% C.L.), antinociceptive potency (male ICR mice [1]) | # of Jumps (SEM), naloxone-precipitated withdrawal (male ICR mice [2]) | Chronic ED50 nmol (95% C.L.) (male ICR mice [3]) | Saline ED50 nmol (95% C.L.) (male ICR mice [3]) | fold increase in ED50 value after chronic ICV infusion (male ICR mice [3]) [fold] | other results
1 | CNC(=O)COCC(=O)NCCCCCCCNC(=O)COCC(=O)NC1CCC2(O)C3Cc4ccc(O)c5c4C2(CCN3C)C1O5 (stereo not drawn) [Compound 14, reference compound] | 43.56 | – | – | – | – | – | –
2 | CN1CCC23c4c5ccc(O)c4OC2C(NC(=O)COCC(=O)NCCCCCCNC(=O)COCC(=O)Nc2cccc4c6c([nH]c24)C2Oc4c(O)ccc7c4C24CCN(CC2CC2)C(C7)C4(O)C6)CCC3(O)C1C5 (stereo not drawn) [Compound 7, 7′-{2-[(6-{2-[({(5α,6α)-4,5-Epoxy-3,14-dihydroxy-17-methylmorphin-6-yl}-aminocarbonyl)-methoxy]-acetylamino}-hexylaminocarbonyl)-methoxy]-acetylamino}-naltrindole] | – | 0.17 (0.15-0.19) nmol | 0.4 (0.4) | 0.17 (0.13-0.21) nmol | 0.17 (0.15-0.20) nmol | – | physical dependence on chronic ICV administration (male ICR mice [2]; listed as MDAN-20): no tolerance or dependence was observed; also recorded: produced no tolerance or physical dependence; tolerance on chronic ICV administration (male ICR mice [3]; listed as MDAN-20): no tolerance or dependence was observed; also recorded: produced no tolerance or physical dependence
3 | CNC(=O)COCC(=O)NCCCNC(=O)COCC(=O)NC1CCC2(O)C3Cc4ccc(O)c5c4C2(CCN3C)C1O5 (stereo not drawn) [Compound 10, reference compound] | 39.69 | – | – | – | – | – | –
4 | CNC(=O)COCC(=O)NCCNC(=O)COCC(=O)NC1CCC2(O)C3Cc4ccc(O)c5c4C2(CCN3C)C1O5 (stereo not drawn) [Compound 9, reference compound] | 39.39 | – | – | – | – | – | –
5 | CNC(=O)COCC(=O)NCCCCCCNC(=O)COCC(=O)N[C@H]1CC[C@@]2(O)[C@H]3Cc4ccc(O)c5c4[C@@]2(CCN3C)[C@H]1O5 [Compound 13, (5α,6α)-6-{2-[(6-{2-[(Methylaminocarbonyl)-methoxy]-acetylamino}-hexylaminocarbonyl)-methoxy]-acetylamino}-4,5-epoxy-3,14-dihydroxy-17-methylmorphinan, reference compound] | 37.25 | – | – | – | – | – | –
6 | CN1CCC23c4c5ccc(O)c4OC2C(NC(=O)COCC(=O)NCCCCNC(=O)COCC(=O)Nc2cccc4c6c([nH]c24)C2Oc4c(O)ccc7c4C24CCN(CC2CC2)C(C7)C4(O)C6)CCC3(O)C1C5 (stereo not drawn) [Compound 5] | – | 0.95 (0.68-1.23) nmol | 8.9 (3.0) | 4.75 (3.50-6.00) nmol | 1.29 (0.97-1.61) nmol | 3.7 | physical dependence on chronic ICV administration (male ICR mice [2]; listed as MDAN-18): without producing dependence; also recorded: without physical dependence; # of Jumps (SEM), naloxone-precipitated withdrawal (male ICR mice [2]; listed as MDAN-18): 8.9; tolerance on chronic ICV administration (male ICR mice [3]; listed as MDAN-18): produced tolerance; also recorded: tolerance without physical dependence developed
7 | CN1CCC23c4c5ccc(O)c4OC2C(NC(=O)COCC(=O)NCCCNC(=O)COCC(=O)Nc2cccc4c6c([nH]c24)C2Oc4c(O)ccc7c4C24CCN(CC2CC2)C(C7)C4(O)C6)CCC3(O)C1C5 (stereo not drawn) [Compound 4] | – | 1.49 (1.04-1.95) nmol | 0.9 (0.7) | 5.61 (4.39-6.83) nmol | 1.54 (0.89-2.20) nmol | 3.6 | physical dependence on chronic ICV administration (male ICR mice [2]; listed as MDAN-17): without producing dependence; also recorded: without physical dependence; # of Jumps (SEM), naloxone-precipitated withdrawal (male ICR mice [2]; listed as MDAN-17): 0.94; tolerance on chronic ICV administration (male ICR mice [3]; listed as MDAN-17): produced tolerance; also recorded: tolerance without physical dependence developed
8 | CNC(=O)COCC(=O)NCCCCCNC(=O)COCC(=O)NC1CCC2(O)C3Cc4ccc(O)c5c4C2(CCN3C)C1O5 (stereo not drawn) [Compound 12, reference compound] | 39.45 | – | 83 (13) | 0.22 (0.19-0.26) nmol | 0.04 (0.03-0.05) nmol | 5.5 | ED50 ICV (nmol) (male ICR mice [1]; tail flick, ICV, Table 2): 0.04 (0.03-0.05) nmol; ED50 IV (nmol) (male ICR mice [4]): 1.61 (1.29-1.92) nmol; physical dependence on chronic ICV administration (male ICR mice [2]): produced both antinociceptive tolerance and physical dependence; # of Jumps (SEM), naloxone-precipitated withdrawal (male ICR mice [2]; listed as MA-19): 83; tolerance on chronic ICV administration (male ICR mice [3]): produced both antinociceptive tolerance and physical dependence

— patent publication US20090233841A1, “ANALGESIC CONJUGATES” (Regents of the University of Minnesota, priority 2005, published 2009)
